Values joined by “and” are separate entries in the source; they are usually repeats but may differ in a detail not shown here. Identical values can stand only once.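 Compound exposure: 48 hours, 5 concentrations, 96-well plates. At the GI50, growth is halved. TGI denotes the concentration required for complete inhibition of growth.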
Tests used:
Assay in all cases: inhibition of tumour cell growth, NCI panel, 48 h
ACHN renal = test system: ACHN renal
BT-549 breast = test system: BT-549 breast
CCRF-CEM leukemia = test system: CCRF-CEM leukemia
HCC-2998 colon = test system: HCC-2998 colon
MALME-3M melanoma = test system: MALME-3M melanoma
SNB-75 CNS = test system: SNB-75 CNS
SR leukemia = test system: SR leukemia
T-47D breast = test system: T-47D breast
U251 CNS = test system: U251 CNS
UO-31 renal = test system: UO-31 renal

| Structure (SMILES) | GI50 (ACHN renal) | TGI (ACHN renal) | GI50 (BT-549 breast) | TGI (BT-549 breast) | GI50 (CCRF-CEM leukemia) | TGI (CCRF-CEM leukemia) | GI50 (HCC-2998 colon) | TGI (HCC-2998 colon) | GI50 (MALME-3M melanoma) | TGI (MALME-3M melanoma) | GI50 (SNB-75 CNS) | TGI (SNB-75 CNS) | GI50 (SR leukemia) | TGI (SR leukemia) | GI50 (T-47D breast) | TGI (T-47D breast) | GI50 (U251 CNS) | TGI (U251 CNS) | GI50 (UO-31 renal) | TGI (UO-31 renal) |
| --- | --- | --- | --- | --- | --- | --- | --- | --- | --- | --- | --- | --- | --- | --- | --- | --- | --- | --- | --- | --- |
| O=C(Nc1cnc(C(F)(F)F)cn1)c1cc(Cl)ccc1O | 0.269 µM | 1.16 µM | 0.255 µM | 0.835 µM | 0.406 µM | > 100 µM | 0.294 µM | 4.6 µM | 0.197 µM | 0.565 µM | 0.194 µM | 0.835 µM | 0.347 µM | 2.19 µM | 0.238 µM | 0.851 µM | 0.352 µM | > 100 µM | 0.196 µM | 1.16 µM |
| Nc1cc2cccc[n+]2c2cccc(Cl)c12 | 41.8 µM | – | 16.1 µM | 48.8 µM | 12 µM | 94.4 µM | 11.4 µM | 32.4 µM | 3.21 µM | 13.5 µM | – | – | 5.58 µM | 51.2 µM | 9.86 µM | – | 6.36 µM | 33.8 µM | 61.4 µM | – |
| COc1cc(/C=C/[N+](=O)[O-])cc(OC)c1OC | 1.83 µM | 3.46 µM | 2.19 µM | 4.57 µM | 3.35 µM | 15.4 µM | 1.82 µM | 3.31 µM | 2.29 µM | 6.06 µM | 2.4 µM | 6.11 µM | 3.36 µM | 12.5 µM | 2 µM | 9.6 µM | 2.86 µM | 10.9 µM | 2.05 µM | 3.91 µM |
| C[C@H]1c2ccccc2CN1CCCOc1cc2c(cc1OCC1CC1)C1(CCCC1)C(N)=N2 | 1.8 µM | 6.69 µM | 4.8 µM | 10.8 µM | 1.46 µM | 6.82 µM | 0.931 µM | 1.78 µM | 0.888 µM | 1.68 µM | 0.994 µM | 4.86 µM | 1.15 µM | 2.87 µM | 0.99 µM | 2.5 µM | 1.31 µM | 4.08 µM | 1.02 µM | 3.04 µM |
| OCc1ccc(N2CCCC2)cc1Cl | 29.2 µM | > 75.3 µM | 32 µM | > 100 µM | 31.3 µM | > 100 µM | 15.7 µM | 69.9 µM | 27.3 µM | 73 µM | 24.5 µM | > 100 µM | 46.2 µM | > 100 µM | 0.538 µM | 2.88 µM | 5.52 µM | > 60.8 µM | 17.2 µM | 50 µM |
| O=C(NN1C(=O)CSC1c1ccc(F)cc1)C(O)c1ccccc1 (centres undefined) | 91.5 µM | > 100 µM | > 100 µM | > 100 µM | > 100 µM | > 100 µM | > 100 µM | > 100 µM | – | – | 33.4 µM | > 100 µM | 60.8 µM | > 100 µM | 59.5 µM | > 100 µM | 97.4 µM | > 100 µM | > 100 µM | > 100 µM |
| O=NN(CCCl)C(=O)NC1CCC(=O)NC1=O (centres undefined) | – | > 1250 µM | – | 593 µM | – | 304 µM | – | > 1160 µM | – | 481 µM | – | 396 µM | – | 674 µM | – | 892 µM | – | 305 µM | – | 1250 µM |
| C=CCn1c(=O)c2cnc(Nc3ccc(N4CCN(C)CC4)cc3)nc2n1-c1cccc(C(C)(C)O)n1 | 0.075 µM and 0.226 µM | > 100 µM | 0.437 µM and 0.383 µM | 6.01 µM and > 6.27 µM | 0.271 µM and 0.294 µM | – | 0.388 µM and 1.13 µM | 7.26 µM and > 7.72 µM | 1.73 µM and 0.593 µM | 18.4 µM and > 10 µM | 1.44 µM and 0.717 µM | 8.68 µM and 6.37 µM | 0.269 µM and 0.253 µM | 1.67 µM and 2.07 µM | 2.52 µM and 0.644 µM | > 100 µM | 0.707 µM and 1.18 µM | 19.9 µM and > 10 µM | 0.338 µM and 0.28 µM | 7.47 µM and > 10 µM |
| COc1ccc2c(c1)C(=O)c1c-2n(CCCN)c(=O)c2cc([N+](=O)[O-])ccc12 | – | – | < 0.01 µM | – | < 0.01 µM | < 0.01 µM | – | – | 2.25 µM | 7.64 µM | – | – | < 0.01 µM | < 0.01 µM | < 0.01 µM | 1.86 µM | < 0.01 µM | – | < 0.01 µM | 0.0172 µM |
| CC(=O)O.CC(=O)O.CC(=O)O.CC(=O)O.[Rh].[Rh] | 24.9 µM | > 100 µM | 29.5 µM | 90.3 µM | 5.1 µM | 20.3 µM | 24 µM | 56.7 µM | 7.06 µM | 37.4 µM | 30.5 µM | > 100 µM | 21.1 µM | 40.2 µM | 14.9 µM | > 100 µM | 25.2 µM | 75.3 µM | 20.6 µM | 59 µM |

Source: PubChem BioAssay (NCI)
